From patent US20100196355A1, “Immunophilin Ligands and Methods for Modulating Immunophilin and Calcium Channel Activity” (Wyeth, priority 2007, published 2010)
“Also recorded” adds a separate entry of the source.

Tests used:
[1] = molecular target: T1, β1 subunit (CACNB1) of the voltage gated L-type calcium channel (Mus musculus, UniProt Q8R3Z5); assay: Affinity precipitation from F-11 cell lysate, FT-ICR-MS and Western analysis; assay type: binding, rat and mouse hybrid
T1 construct: endogenous in cells; host or cells: F-11 cells (rat DRG x mouse neuroblastoma hybrid), lysate
T1 sequence (Q8R3Z5 1-479 isoform Q8R3Z5-3): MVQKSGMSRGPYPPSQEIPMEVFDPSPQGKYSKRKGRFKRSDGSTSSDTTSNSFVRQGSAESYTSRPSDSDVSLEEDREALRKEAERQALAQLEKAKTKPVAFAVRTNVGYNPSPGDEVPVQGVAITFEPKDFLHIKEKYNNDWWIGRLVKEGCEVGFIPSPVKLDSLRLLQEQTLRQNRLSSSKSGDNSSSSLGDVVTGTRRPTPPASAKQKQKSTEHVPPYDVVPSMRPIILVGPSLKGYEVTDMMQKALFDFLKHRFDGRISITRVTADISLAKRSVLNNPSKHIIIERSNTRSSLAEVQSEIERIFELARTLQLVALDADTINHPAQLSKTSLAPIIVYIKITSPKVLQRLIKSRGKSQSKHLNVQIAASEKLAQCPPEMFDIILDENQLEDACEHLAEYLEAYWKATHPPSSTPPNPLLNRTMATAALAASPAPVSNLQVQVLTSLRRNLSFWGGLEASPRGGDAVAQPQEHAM
Experimental: (§1) Briefly, the amino group of amino-phenyl-butyric acid (1200 mg) was protected with an allyloxycarbonyl group by treating with diallyldicarbonate ([…]) in dioxane:water (3:1; 50 ml) for 3 h at room temperature.
(§2) The reaction was quenched with methanol and the ester product was purified by HPLC with a purity of 99% and characterized by MS and NMR. After removing the allyloxycarbonyl group of the ester product (40 mg) by treatment with Pd(PPh3)4 (2 mg) and dimedone (7 mg) in THF (1.2 ml), the amino group of the product was linked to Affigel-10 matrix (4 ml) in the presence of 2% pyridine in THF.
(§3) F11 cells were grown in culture medium, DMEM supplemented with 10% FBS and 1% pen/Strep, in 75 cm^2 vented flasks in 37° C. incubator with 5% CO2. Cells were harvested at 80% confluence and washed with PBS buffer. Lysis buffer (6 ml; 50 mM Tris, pH 7.4, 250 mM NaCl, 5 mM EDTA, 50 mM NaF, 1 mM Na3VO4, 1% Nonidet P40 (NP40), 0.1% mercaptoethanol and 2% protease inhibitor cocktails) was added to 10^9 cells. Cells were broken by forcing them through a 26-gauge needle, and S-100 supernatant was collected after 15 min centrifugation at 4° C. […] After washes with lysis buffer (2 ml) and then PBS (2 ml), the beads were analyzed on 4-20% SDS-PAGE gel. […] The protein bands (FIG. 3) were cut out and digested with trypsin (0.3 ng) in digestion buffer (30 μl; 0.2% NH4HCO3) at 30° C. overnight. The resulting peptides were purified on C18-resin and submitted for FT-ICR-MS analysis. The FT-ICR-MS data was manually edited and used to search protein databases. The results are shown in FIG. 4 and have the following scores. FK506-binding protein (FKBP52) (P30416, score: 94, expect: 9.6e-05); MS Data of the 59 kDa band: 2753.35; 1710.94; 2215.13; 2363.15; 1298.71; 1215.59; 1000.51; 1000.46; 1790.93; 1381.70; 2746.36; 1316.71; and 1171.60. Voltage dependent L-type calcium channel β1 subunit (Q8R3Z5-03-00-00, score: 133, expect: 1e-09); MS Data of the 52 kDa band: 651.38; 663.39; 779.54; 853.55; 1014.50; 1347.75; 1217.78; 1346.67; 1297.75; 1231.77; 877.52; 853.47; 919.48; 1014.56; 1041.63; 1217.74; 1231.74; 1296.84; 869.58 (major).
(§4) In another experiment, F11 cells were grown in culture medium, DMEM supplemented with 10% FBS and 1% Pen/Strep, in 75 cm^2 vented flasks in a 37° C. incubator with 5% CO2. Cells were harvested at 80% confluence and washed with PBS buffer. To 3×10^8 cells, lysis buffer (2 ml; 50 mM Tris, pH 7.4, 250 mM NaCl, 5 mM EDTA, 50 mM NaF, 1 mM Na3VO4, 1% Nonidet P40, 0.1% mercaptoethanol and 2% protease inhibitor cocktails) was added, and its S-100 supernatant was collected after 15 min centrifugation at 4° C. […] After wash with lysis buffer (2 ml) and then PBS buffer (2 ml), beads were analyzed by SDS-PAGE. […]

FKBP52 = molecular target: T2, FKBP52 (Mus musculus, UniProt P30416); assay: as above; assay type: binding, rat and mouse hybrid
T2 construct: endogenous in cells; host or cells: F-11 cells (rat DRG x mouse neuroblastoma hybrid), lysate
T2 sequence (P30416 whole entry): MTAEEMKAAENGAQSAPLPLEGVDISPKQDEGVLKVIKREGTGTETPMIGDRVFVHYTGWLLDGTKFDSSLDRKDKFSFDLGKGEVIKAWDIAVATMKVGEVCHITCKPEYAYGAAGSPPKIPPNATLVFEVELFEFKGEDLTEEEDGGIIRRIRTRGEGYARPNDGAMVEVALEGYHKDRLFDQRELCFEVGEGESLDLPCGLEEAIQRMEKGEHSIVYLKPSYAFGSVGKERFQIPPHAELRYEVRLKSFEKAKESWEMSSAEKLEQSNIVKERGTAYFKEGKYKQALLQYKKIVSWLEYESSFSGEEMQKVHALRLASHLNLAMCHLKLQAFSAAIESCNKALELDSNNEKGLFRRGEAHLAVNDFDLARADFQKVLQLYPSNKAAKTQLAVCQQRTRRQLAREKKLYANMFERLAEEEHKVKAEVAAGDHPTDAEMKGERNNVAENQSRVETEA
Experimental: as §1, §2, §3, §4

[2] = tested on: Ca2+ channels in cultured rat hippocampal neurons; assay: Whole-cell patch clamp recording of Ca2+ currents in hippocampal neurons; assay type: cell-based; conditions: 10 μM internal
Experimental: The whole-cell configuration of the patch-clamp technique was used to record calcium currents from the cells at room temperature using an EPC-9 amplifier (HEKA, Instrutech Corp.) with the acquisition and analysis program Pulse-PulseFit from HEKA (Lambrecht, Germany). Electrodes were fabricated using a P-87 puller (Sutter Instrument). […] The standard bath recording solution is Ca^2+ and Mg^2+ free HBSS (pH 7.4) containing 10 mM HEPES, 10 mM dextrose, and 4 mM BaCl2. Currents were filtered at 3 kHz, and the inward Ca^2+ currents were recorded from cells held at −90 mV with 10 mV depolarizing steps from −80 mV to 60 mV for 50 ms.

SMILES: CO[C@H]1C[C@@H]2CC[C@@H](C)[C@@](O)(O2)C(=O)C(=O)N2CCCCC2C(=O)O[C@H]([C@H](C)C[C@@H]2CC[C@@H](O)[C@H](OC)C2)CC(=O)[C@H](C)/C=C(\C)[C@@H](O)[C@@H](OC)C(=O)[C@H](C)C[C@H](C)C2C=C[C@H](/C=C/1C)ON2c1ccccc1 (stereo partly drawn) [Rapamycin analogue I, 9,27-dihydroxy-3-{2-[4-hydroxy-3-methoxycyclohexyl]-1-methylethyl}-10,21-dimethoxy-6,8,12,14,20,26-hexamethyl-37-phenyl-4,9,10,12,13,14,15,18,21,22,23,24,25,26,27,32,33,34,34a-nonadecahydro-3H-23,27-epoxy-18,15-(epoxyimino)pyrido[2,1-c][1,4]oxazacyclohentriacontine-1,5,11,28,29(6H, 31H)-pentone]
- L-type calcium channel β1 subunit (CACNB1) in affinity bead fraction [1]: major targets; also recorded: detected
- FKBP52 in affinity bead fraction (FKBP52): major targets; also recorded: detected

SMILES: CO[C@H]1C[C@@H]2CC[C@@H](C)[C@@](O)(O2)C(=O)C(=O)N2CCCCC2C(=O)O[C@H]([C@H](C)C[C@@H]2CC[C@@H](O)[C@H](OC)C2)CC(=O)[C@H](C)/C=C(\C)[C@@H](O)[C@@H](OC)C(=O)[C@H](C)C[C@H](C)C2CC[C@H](/C=C/1C)ON2c1ccccc1 (stereo partly drawn) [Rapamycin analogue II, 9,27-dihydroxy-3-{2-[4-hydroxy-3-methoxycyclohexyl]-1-methylethyl}-10,21-dimethoxy-6,8,12,14,20,26-hexamethyl-37-phenyl-4,9,10,12,13,14,15,16,17,18,21,22,23,24,25,26,27,32,33,34,34a-henicosahydro-3H-23,27-epoxy-18,15-(epoxyimino)pyrido[2,1-c][1,4]oxazacyclohentriacontine-1,5,11,28,29(6H, 31H)-pentone]
- inhibition of Ca2+ current ([2]; N-type Ca2+ channels blocked, after 10 min): 74.5+/−8.8
- inhibition of the remaining Ca2+ current ([2]; both N- and L-type Ca2+ channels blocked): 21.3+/−4.4%
- L-type calcium channel β1 subunit (CACNB1) in affinity bead fraction [1]: major targets
- FKBP52 in affinity bead fraction (FKBP52): major targets
